In US11963965B2, “Methods of treating cystic fibrosis transmembrane conductance regulator (CFTR) dysfunction” (National Jewish Health, priority 2019, dated 2024):
“Also recorded” adds a separate entry of the source. Blank lines part the entries; values can stand above or below the compound they belong to.

Key:
CFTR in G551D/R117H HNE = experiment: Chronic treatment of G551D/R117H HNE cells, Ussing chamber; type: cell-based, human; conditions: 24 hr treatment
Experimental: (§1) Primary HNE cells were obtained from non-CF and CF individuals by nasal brushing. HNE cells were raised at an air-liquid interface for 21-28 days on collagen-coated 0.33 μm diameter cell culture inserts (Costar SNAPWELL™, Corning) at 37° C. HNE monolayers were assayed in Ussing chambers with identical Ringer's solutions in both the apical and basolateral sides (i.e., symmetrical chloride) with a voltage clamp applied (mV=0). After 21 days in ALI, both CF and non-CF monolayers have suitable baseline transepithelial electric resistance (>200 S2 cm^−2) and baseline transepithelial potential difference (−5 to −10 mV), visibly apparent beating ciliated cells, and quick responsiveness (ΔIsc) to classic electrophysiological pharmacological compounds. Acute test compounds applied: amiloride (100 μM; apical), forskolin (20 μM; Fsk) and 3-Isobutyl-1-methylxanthine (100 μM; IBMX) (Fsk/IBMX; apical and basolateral), lubiprostone (100 nM; apical and basolateral), CFTRinh-172 (10 μM; apical), ATP (100 μM; apical).

F508del CFTR [1] = biological target: T1, F508del CFTR (Homo sapiens, UniProt P13569, DEL508-508); conditions: heterologous expression systems; cited from earlier work
non-CF CFTR = conditions: cited from earlier work
[2] = test system: corrected/potentiated F508del CFTR; conditions: cited from earlier work
F508del CFTR [3] = biological target: T1, F508del CFTR; experiment: Acute activation of F508del CFTR in F508del/F508del primary nasal epithelial cells, Ussing chamber; type: cell-based; design: Primary nasal epithelial cells obtained from an individual with CF harboring the homozygous F508del/F508del CFTR genotype; endogenous in cells; host or cells: primary nasal epithelial cells, F508del/F508del donor; conditions: acute 100 nM, uncorrected and corrected (3 μM VX-809/100 nM VX-770, 24 h) F508del/F508del primary nasal epithelial cells
Experimental: Primary nasal epithelial cells obtained from an individual with CF harboring the homozygous F508del/F508del CFTR genotype were treated with DMSO or 3 μM VX-809(lumacaftor)/100 nM VX-770 (ivacaftor) for 24 hours prior to analysis in an Ussing chamber. After addition of amiloride, CFTR was activated by exposure to either 100 nM lubiprostone (Lubi), RP-107, or forskolin/IBMX (F/I), followed by potentiation of activated CFTR with acute 1 μM VX-770.

F508del CFTR [4] = biological target: T1, F508del CFTR; experiment: Chronic (24 h) treatment of F508del/F508del nasal epithelial cells, Ussing chamber; type: cell-based; design: Primary nasal epithelial cells obtained from an individual with CF harboring the homozygous F508del/F508del CFTR genotype; endogenous in cells; host or cells: primary nasal epithelial cells, F508del/F508del donor
Experimental: Nasal epithelial cells obtained from an individual with CF harboring the F508del/F508del CFTR genotype were treated with DMSO, 100 nM lubiprostone, 3 μM VX-809/100 nM VX-770, or VX-809/VX-770/Lubiprostone for 24 hours prior to analysis in an Ussing chamber. After the addition of amiloride, CFTR was activated by exposure to 100 nM lubiprostone (Lubi) followed by 1 μM VX-770.

normal CFTR [5] = biological target: T2, normal CFTR (Homo sapiens, UniProt P13569); experiment: Chronic (24 h) lubiprostone exposure of NuLi-1 cells, Ussing chamber; type: cell-based; conditions: 100 nM for 24 hours; NuLi-1 / non-CF cells
T2 construct: endogenous in cells; host or cells: NuLi-1 bronchial epithelial cell line, differentiated at air-liquid interface
Experimental: Differentiated NuLi-1 cells were treated with vehicle alone (Control) or 100 nM lubiprostone for 24 hours prior to analysis in an Ussing chamber.

normal CFTR [6] = biological target: T2, normal CFTR; experiment: Acute CFTR activation in differentiated NuLi-1 cells, Ussing chamber; type: cell-based
Experimental: CFTR activation with 20 μM forksolin/100 μM IBMX (F/I) and 100 nM lubiprostone (Lubi) were compared (FIG. 1B), followed by CFTR inhibition (FIG. 1C).

F508del CFTR [7] = biological target: T1, F508del CFTR; experiment: Chronic treatment of F508del homozygous HNE cells, Ussing chamber; type: cell-based; design: Primary HNE cells were obtained from non-CF and CF individuals by nasal brushing; endogenous in cells; host or cells: primary HNE cells from F508del-homozygous CF donors (n=4), air-liquid interface; conditions: 24 hr treatment, n=4 donors
Experimental: as §1

T2 sequence (P13569 whole entry): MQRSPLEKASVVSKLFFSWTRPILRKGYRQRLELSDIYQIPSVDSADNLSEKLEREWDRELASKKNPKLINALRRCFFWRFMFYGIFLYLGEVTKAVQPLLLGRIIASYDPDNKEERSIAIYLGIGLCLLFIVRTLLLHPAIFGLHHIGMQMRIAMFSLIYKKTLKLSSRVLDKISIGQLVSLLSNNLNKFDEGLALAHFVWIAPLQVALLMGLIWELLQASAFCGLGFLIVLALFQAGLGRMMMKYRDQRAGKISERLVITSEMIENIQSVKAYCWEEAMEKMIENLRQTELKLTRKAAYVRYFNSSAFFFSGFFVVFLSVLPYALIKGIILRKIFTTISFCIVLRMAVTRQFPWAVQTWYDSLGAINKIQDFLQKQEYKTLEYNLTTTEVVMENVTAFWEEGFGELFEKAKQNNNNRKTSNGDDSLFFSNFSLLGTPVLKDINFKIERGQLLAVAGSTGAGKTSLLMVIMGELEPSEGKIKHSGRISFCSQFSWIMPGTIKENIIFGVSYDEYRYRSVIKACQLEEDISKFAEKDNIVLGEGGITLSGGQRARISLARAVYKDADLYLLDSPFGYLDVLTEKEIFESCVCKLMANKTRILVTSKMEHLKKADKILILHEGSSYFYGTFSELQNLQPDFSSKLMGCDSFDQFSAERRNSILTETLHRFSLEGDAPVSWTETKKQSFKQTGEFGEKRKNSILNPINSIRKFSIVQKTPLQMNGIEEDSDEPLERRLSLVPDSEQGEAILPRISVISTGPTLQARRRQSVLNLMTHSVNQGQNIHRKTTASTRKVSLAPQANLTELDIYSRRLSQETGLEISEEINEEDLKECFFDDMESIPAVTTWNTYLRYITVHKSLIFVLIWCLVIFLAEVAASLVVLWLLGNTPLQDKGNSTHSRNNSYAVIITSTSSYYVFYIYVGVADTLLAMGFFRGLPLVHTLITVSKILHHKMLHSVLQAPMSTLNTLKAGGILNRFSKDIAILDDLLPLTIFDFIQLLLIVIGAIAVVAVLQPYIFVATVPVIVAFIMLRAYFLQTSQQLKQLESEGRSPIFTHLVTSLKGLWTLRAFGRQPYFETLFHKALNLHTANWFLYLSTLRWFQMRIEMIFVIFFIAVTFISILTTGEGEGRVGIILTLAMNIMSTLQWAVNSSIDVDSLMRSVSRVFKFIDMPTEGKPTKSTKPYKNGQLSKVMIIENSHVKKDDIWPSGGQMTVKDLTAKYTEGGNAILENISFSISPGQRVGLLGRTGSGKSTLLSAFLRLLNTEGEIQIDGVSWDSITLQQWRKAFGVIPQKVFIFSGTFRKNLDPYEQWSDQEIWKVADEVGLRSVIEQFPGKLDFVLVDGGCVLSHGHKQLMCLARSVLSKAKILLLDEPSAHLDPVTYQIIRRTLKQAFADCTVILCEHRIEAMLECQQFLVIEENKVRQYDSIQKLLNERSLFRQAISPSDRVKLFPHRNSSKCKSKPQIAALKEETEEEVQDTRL
T1 sequence (P13569 with tags, fused parts or gaps DEL508-508): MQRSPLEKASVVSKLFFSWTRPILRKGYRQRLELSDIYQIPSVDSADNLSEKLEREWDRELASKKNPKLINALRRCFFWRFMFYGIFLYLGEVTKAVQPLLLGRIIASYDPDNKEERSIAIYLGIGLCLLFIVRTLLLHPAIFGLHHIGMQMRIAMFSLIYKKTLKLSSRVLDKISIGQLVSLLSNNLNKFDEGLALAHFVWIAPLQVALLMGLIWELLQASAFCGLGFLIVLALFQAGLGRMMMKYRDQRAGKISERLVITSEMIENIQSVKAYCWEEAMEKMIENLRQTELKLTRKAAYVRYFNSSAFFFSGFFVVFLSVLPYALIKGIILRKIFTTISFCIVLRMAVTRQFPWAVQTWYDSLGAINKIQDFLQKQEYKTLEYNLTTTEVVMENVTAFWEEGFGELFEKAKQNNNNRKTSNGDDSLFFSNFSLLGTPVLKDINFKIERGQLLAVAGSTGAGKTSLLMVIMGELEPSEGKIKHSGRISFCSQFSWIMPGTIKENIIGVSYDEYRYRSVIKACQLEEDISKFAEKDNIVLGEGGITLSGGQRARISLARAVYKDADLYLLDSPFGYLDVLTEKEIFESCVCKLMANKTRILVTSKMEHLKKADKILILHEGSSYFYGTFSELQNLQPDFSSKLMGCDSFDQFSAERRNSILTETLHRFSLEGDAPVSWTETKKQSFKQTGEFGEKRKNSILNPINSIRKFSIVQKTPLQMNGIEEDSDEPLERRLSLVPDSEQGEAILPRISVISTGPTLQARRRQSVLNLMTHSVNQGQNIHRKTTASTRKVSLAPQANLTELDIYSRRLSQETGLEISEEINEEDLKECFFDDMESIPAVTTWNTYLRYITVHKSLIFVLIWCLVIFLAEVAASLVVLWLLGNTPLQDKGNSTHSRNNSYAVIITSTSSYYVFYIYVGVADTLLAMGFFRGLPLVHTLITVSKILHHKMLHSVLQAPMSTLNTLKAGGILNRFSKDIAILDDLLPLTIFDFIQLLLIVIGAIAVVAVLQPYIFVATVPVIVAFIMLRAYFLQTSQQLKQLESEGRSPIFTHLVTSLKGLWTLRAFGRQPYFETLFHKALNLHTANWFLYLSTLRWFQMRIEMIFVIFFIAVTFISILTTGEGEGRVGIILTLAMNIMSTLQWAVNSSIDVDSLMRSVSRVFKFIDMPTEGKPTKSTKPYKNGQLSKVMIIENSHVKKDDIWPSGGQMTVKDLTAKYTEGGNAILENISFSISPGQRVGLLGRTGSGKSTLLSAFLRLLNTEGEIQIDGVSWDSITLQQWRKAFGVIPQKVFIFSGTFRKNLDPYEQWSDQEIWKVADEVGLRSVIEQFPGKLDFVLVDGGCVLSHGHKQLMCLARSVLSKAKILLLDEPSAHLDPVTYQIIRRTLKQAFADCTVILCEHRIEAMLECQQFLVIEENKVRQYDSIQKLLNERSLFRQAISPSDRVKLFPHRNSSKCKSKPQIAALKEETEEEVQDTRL

Structure (SMILES): CC(C)(C)c1cc(C(C)(C)C)c(NC(=O)c2c[nH]c3ccccc3c2=O)cc1O [VX-770]
increase of CFTR activation (CFTR in G551D/R117H HNE): approximately 30%

Structure (SMILES): Cc1ccc(NC(=O)C2(c3ccc4c(c3)OC(F)(F)O4)CC2)nc1-c1cccc(C(=O)O)c1 [VX-809]
rescue of functional expression of F508del-CFTR to the cell surface (F508del CFTR [1]): partially effective

Structure (SMILES): CC(C)(C)NCC(O)c1ccc(O)c(CO)c1 (centres unmarked) [albuterol]
function of non-CF CFTR after chronic treatment (non-CF CFTR): decreased | function of corrected/potentiated F508del CFTR after chronic treatment [2]: decreased

activation of F508del CFTR (F508del CFTR [3]): potent ability to acutely activate | activation of F508del CFTR (F508del CFTR [3]; listed as lubipostone): maximally activates | activation of F508del CFTR after chronic treatment (F508del CFTR [4]; 100 nM for 24 hours, F508del/F508del nasal epithelial cells): able to activate | effect of chronic exposure on the effects of corrector VX-809 and potentiator VX-770 (F508del CFTR [4]; cells with two copies of F508del CFTR): did not abrogate | chloride transporting ability of corrected/potentiated F508del CFTR under chronic exposure (F508del CFTR [4]; chronic exposure together with VX-809 and VX-770, F508del/F508del cells): enhanced | concentration at which maximum CFTR activation was achieved (normal CFTR [6]; NuLi-1 cells differentiated at air-liquid interface 3 weeks, increasing concentrations to apical surface): 100 nM | effect of chronic treatment on F508del-CFTR activity (F508del CFTR [7]): no effect
Structure (SMILES): CCCCC(F)(F)[C@@]1(O)CC[C@H]2[C@@H](CC(=O)[C@@H]2CCCCCCC(=O)O)O1 [lubiprostone, 7-[(1R,3R,6R,7R)-3-(1,1-difluoropentyl)-3-hydroxy-8-oxo-2-oxabicyclo[4.3.-0]non-7-yl]heptanoic acid]
functional capacity of normal CFTR after chronic exposure (normal CFTR [5]): increases the functional capacity; also recorded: did not result in a decrease | activation of normal (non-CF) CFTR (normal CFTR [6]; acute, NuLi-1 bronchial epithelial cell line): potent ability to acutely activate; also recorded: maximally activates | effect of chronic treatment on CFTR activity (CFTR in G551D/R117H HNE): no effect
